# Data from paper PMC10638516 (Acta Pharmaceutica Sinica. B, 2023).
# Experiments:
# [1] = Pharmacokinetics study in ICR mice; type: in vivo, mouse; conditions: for half-life: t1/2, ICR mice
# [2] = biological target: T1, hD2R (Homo sapiens, UniProt P14416); type: cell-based
# [3] = biological target: hH1 (Cavia porcellus, UniProt P31389); test: biochemical; type: binding, guinea pig
# [4] = biological target: hD1 (Homo sapiens, UniProt P21728); test: biochemical; type: binding
# [5] = biological target: h5-HT1A (Homo sapiens, UniProt P08908); test: biochemical; type: binding
# Chain of h5-HT1A (P08908 whole entry): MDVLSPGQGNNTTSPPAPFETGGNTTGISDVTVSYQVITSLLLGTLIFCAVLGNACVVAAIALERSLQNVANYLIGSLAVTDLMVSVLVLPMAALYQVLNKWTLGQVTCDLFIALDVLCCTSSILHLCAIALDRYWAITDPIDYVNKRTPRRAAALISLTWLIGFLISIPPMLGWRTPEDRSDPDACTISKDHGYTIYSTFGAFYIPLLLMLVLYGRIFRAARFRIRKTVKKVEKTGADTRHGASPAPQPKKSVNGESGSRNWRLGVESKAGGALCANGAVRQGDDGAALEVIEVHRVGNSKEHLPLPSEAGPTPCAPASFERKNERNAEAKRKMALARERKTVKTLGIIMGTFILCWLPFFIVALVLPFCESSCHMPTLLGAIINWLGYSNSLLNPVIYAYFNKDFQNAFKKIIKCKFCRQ
# [6] = system: ICR mice; test: Apomorphine-induced climbing; type: in vivo, mouse; conditions: i.p., apomorphine 1.0 mg/kg s.c.
# [7] = system: ICR mice; test: Spontaneous locomotor test; conditions: compounds 30 mg/kg i.p., RPD 1 mg/kg, 15 min
# [8] = biological target: hD5 (Homo sapiens, UniProt P21918); test: biochemical; type: binding
# [9] = biological target: T2, hD3R (Homo sapiens, UniProt P35462); test: ERK1/2 phosphorylation; type: cell-based; conditions: for effect on ERK1/2 phosphorylation mediated by hD3R, compound alone (agonist mode): CHO-hD3R cells, quinpirole at 20 μmol/L; for competitive antagonism of ERK1/2 phosphorylation mediated by D3R: in the presence of 20 μmol/L dopamine
# T2 sequence (P35462 whole entry): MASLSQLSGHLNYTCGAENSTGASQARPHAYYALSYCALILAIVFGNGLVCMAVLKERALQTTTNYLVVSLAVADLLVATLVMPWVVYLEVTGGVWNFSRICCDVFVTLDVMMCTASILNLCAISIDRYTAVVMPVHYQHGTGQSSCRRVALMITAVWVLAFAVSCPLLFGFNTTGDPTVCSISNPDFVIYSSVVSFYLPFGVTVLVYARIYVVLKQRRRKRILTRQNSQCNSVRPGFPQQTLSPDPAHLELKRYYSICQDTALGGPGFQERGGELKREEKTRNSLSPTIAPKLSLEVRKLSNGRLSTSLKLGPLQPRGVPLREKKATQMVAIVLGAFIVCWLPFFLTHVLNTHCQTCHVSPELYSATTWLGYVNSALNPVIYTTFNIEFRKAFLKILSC
# [10] = system: mice; test: Acute toxicity assay in mice; type: in vivo, mouse; conditions: i.p., up to 600 mg/kg
# [11] = system: ICR mice; test: MK-801-induced hyperactivity; conditions: for inhibition of MK-801-induced hyperactivity at 3 mg/kg: 3 mg/kg i.p.
# [12] = biological target: hα1; type: binding, rat; conditions: read-out: Ki hα1; Table 6 selectivity profile
# [13] = BBB penetration study in ICR mice; type: in vivo, mouse
# [14] = biological target: hNET (Homo sapiens, UniProt P23975); test: biochemical; type: binding
# [15] = biological target: hSERT (Homo sapiens, UniProt P31645); test: biochemical; type: binding
# [16] = biological target: T1, hD2R; test: biochemical; type: binding; conditions: for inhibition at 10 µM: read-out: % inhibition at 10 μmol/L hD2
# [17] = biological target: hD4 (Homo sapiens, UniProt P21917); test: biochemical; type: binding
# Chain of hD4 (P21917 whole entry): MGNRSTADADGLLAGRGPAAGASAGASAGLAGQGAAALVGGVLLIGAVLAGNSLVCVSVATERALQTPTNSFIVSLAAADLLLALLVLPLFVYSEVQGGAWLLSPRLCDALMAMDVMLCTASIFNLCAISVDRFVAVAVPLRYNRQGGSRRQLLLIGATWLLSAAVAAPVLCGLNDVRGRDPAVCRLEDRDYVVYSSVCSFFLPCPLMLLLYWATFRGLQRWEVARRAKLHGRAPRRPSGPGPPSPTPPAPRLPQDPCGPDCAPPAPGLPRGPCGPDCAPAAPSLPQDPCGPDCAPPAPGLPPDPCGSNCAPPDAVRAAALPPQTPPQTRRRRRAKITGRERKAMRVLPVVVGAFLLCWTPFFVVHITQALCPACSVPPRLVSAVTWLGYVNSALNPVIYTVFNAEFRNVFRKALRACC
# [18] = system: PC12 cells; test: CCK8 cytotoxicity test, PC12; type: cell-based; conditions: 24 h
# [19] = biological target: h5-HT1B (Homo sapiens, UniProt P28222); test: biochemical; type: binding
# [20] = system: mice; test: Serum prolactin after repeated oral dosing; type: in vivo, mouse; conditions: after 30 days p.o. dosing, 23j, 36b 30 mg/kg, RPD 1 mg/kg
# [21] = biological target: h5-HT2A (Homo sapiens, UniProt P28223); test: biochemical; type: binding
# [22] = system: mice; test: Catalepsy test in mice; type: in vivo, mouse; conditions: for Catalepsy peak effect (percent of cataleptic animals) / catalepsy under all tested doses: i.p.; for catalepsy under all tested doses: 23j up to 240 mg/kg, 36a/b/f up to 480 mg/kg
# [23] = biological target: T2, hD3R; test: biochemical; type: binding; conditions: for inhibition at 10 µM: read-out: % inhibition at 10 μmol/L hD3, 10 μmol/L test compound
# [24] = biological target: h5-HT2C (Rattus norvegicus, UniProt P08909); test: biochemical; type: binding; conditions: Table 6 selectivity profile
# Chain of h5-HT2C (P08909 33-460): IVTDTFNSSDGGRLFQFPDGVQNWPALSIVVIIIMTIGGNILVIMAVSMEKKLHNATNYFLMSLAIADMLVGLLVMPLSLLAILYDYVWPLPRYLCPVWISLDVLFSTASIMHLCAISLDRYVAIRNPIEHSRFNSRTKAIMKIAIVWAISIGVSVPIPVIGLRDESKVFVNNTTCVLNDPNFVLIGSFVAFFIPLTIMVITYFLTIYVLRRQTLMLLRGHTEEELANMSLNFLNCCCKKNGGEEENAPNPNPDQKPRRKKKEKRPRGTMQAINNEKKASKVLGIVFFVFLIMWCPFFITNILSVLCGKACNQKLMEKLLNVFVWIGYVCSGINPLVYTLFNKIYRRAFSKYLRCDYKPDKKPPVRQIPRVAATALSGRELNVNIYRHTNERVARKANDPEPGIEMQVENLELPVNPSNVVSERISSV
# [25] = biological target: hDAT (Rattus norvegicus, UniProt P23977); test: biochemical; type: binding; conditions: Table 6 selectivity profile
# Chain of hDAT (P23977 whole entry): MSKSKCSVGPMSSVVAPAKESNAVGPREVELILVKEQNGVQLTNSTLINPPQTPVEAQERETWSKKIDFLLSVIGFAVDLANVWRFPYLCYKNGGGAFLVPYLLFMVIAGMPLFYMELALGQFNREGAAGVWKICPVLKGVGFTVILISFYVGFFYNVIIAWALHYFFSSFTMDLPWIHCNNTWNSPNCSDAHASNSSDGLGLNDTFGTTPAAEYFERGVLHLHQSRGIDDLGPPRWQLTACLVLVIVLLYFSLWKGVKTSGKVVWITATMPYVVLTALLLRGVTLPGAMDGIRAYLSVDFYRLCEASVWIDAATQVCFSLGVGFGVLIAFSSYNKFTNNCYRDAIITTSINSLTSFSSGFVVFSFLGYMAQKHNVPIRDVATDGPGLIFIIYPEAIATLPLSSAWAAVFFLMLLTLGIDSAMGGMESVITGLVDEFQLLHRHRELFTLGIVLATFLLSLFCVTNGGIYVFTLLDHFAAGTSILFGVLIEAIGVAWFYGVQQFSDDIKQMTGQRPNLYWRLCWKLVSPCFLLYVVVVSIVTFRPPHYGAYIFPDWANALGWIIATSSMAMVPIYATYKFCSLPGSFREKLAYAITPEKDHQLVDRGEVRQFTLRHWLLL
# [26] = Weight gain on repeated oral dosing; type: in vivo, mouse; conditions: mice, p.o. once daily 30 days; 23j, 36b 30 mg/kg; RPD 1 mg/kg
# [27] = biological target: hERG channel (Homo sapiens, UniProt Q12809); test: hERG channel automated patch clamp; type: cell-based
# Chain of hERG channel (Q12809 whole entry): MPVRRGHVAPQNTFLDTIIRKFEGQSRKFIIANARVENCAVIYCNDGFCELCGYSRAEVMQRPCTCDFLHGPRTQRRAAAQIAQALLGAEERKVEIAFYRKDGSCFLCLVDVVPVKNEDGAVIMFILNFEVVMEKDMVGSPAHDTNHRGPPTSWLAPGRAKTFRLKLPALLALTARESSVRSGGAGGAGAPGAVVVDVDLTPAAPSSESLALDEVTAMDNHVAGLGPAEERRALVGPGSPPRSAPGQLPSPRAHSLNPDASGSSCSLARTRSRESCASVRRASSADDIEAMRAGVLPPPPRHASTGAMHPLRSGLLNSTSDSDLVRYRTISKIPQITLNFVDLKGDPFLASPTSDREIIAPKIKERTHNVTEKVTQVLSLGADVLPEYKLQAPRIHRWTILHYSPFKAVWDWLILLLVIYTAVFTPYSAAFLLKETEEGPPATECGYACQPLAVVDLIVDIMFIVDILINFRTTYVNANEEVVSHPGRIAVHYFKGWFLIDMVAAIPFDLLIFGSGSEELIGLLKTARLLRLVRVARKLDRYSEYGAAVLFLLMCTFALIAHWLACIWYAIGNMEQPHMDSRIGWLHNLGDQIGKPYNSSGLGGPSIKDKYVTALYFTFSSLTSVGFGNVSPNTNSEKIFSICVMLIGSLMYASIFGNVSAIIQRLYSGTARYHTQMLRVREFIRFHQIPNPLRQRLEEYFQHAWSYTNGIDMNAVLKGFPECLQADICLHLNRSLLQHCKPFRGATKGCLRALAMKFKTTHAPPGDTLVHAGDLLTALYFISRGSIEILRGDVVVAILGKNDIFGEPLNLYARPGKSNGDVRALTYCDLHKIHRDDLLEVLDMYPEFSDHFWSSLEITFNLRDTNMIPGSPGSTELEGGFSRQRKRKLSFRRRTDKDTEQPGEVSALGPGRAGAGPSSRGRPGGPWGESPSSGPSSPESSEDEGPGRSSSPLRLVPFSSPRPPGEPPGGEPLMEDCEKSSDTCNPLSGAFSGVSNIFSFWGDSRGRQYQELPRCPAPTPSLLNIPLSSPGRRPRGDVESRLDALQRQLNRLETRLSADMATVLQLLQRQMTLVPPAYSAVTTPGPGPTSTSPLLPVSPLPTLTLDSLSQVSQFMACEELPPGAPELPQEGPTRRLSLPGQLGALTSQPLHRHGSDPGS
# [28] = biological target: h5-HT6 (Homo sapiens, UniProt P50406); test: biochemical; type: binding
# [29] = system: BV2 cells; test: CCK8 cytotoxicity test, BV2; type: cell-based; conditions: 24 h, CCK8, compared with RPD
# [30] = system: HEK293T cells; test: CCK8 cytotoxicity test, HEK293T; type: cell-based; conditions: 24 h, CCK8, compared with RPD
# [31] = system: ICR mice; test: Forced swimming test; type: in vivo, mouse; conditions: 36b 3, 10, 30 mg/kg, DLX 15 mg/kg
# [32] = system: ICR mice; test: Tail suspension test; type: in vivo, mouse; conditions: 36b 3, 10, 30 mg/kg, DLX 15 mg/kg
# [33] = biological target: dopamine D3 receptor; conditions: read-out: D3R Ki; reference modulators of the pERK assay; cited from earlier work
# [34] = ICR, mouse, plasma, iv, 3 mg/kg
# [35] = ICR, mouse, plasma, po, 10 mg/kg
# [36] = Ki hD3, three experiments, means ± SEM
# [37] = hERG inhibition IC50, patch clamp, tested three times
# T1 sequence (P14416 whole entry): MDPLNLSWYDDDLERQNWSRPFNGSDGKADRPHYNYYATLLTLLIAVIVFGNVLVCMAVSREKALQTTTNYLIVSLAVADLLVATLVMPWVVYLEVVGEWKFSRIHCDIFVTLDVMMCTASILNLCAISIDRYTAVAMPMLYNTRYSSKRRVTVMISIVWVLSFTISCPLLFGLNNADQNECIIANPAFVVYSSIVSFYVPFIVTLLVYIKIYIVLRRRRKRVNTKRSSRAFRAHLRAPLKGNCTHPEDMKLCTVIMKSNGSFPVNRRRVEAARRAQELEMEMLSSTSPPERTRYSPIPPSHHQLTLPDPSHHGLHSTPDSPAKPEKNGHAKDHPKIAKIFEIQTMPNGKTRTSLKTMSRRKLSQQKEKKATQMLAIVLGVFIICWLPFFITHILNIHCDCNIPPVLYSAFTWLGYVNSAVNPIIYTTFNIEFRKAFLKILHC
# Chain of hH1 (P31389 whole entry): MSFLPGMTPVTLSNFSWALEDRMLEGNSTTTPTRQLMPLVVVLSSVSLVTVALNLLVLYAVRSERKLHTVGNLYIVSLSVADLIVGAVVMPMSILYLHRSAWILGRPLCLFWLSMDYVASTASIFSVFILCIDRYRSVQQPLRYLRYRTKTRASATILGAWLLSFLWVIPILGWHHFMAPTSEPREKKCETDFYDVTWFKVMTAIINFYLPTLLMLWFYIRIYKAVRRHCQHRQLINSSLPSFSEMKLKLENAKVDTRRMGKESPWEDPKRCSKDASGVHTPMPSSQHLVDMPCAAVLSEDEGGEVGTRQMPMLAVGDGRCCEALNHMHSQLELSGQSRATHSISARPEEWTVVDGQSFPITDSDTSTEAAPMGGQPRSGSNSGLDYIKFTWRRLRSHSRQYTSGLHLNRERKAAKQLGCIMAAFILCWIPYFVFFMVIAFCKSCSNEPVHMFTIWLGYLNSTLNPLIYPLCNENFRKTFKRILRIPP
# Chain of hD1 (P21728 whole entry): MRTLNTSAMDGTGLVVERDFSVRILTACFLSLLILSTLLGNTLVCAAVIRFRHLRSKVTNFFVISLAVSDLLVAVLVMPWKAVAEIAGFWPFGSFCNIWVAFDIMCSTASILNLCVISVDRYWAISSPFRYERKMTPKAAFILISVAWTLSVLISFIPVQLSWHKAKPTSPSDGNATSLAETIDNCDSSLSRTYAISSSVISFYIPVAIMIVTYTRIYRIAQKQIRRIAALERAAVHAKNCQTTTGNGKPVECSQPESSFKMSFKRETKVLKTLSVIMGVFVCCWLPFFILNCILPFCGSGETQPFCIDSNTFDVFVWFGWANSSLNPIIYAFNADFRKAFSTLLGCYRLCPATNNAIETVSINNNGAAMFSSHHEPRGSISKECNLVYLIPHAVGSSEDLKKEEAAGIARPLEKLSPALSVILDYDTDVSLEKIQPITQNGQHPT
compound,measurement,setting,value
CCn1c2ccccc2c2cc(CNCCCCNC(=O)c3ccc(-c4cccnc4)cc3)ccc21 [23j],t1/2,"[1]; ICR mice, 10 mg/kg p.o., single dose, 10 mg/kg",70.2 min
same,AUC,[1]; [34],326 ng·h/mL
same,Cmax,[1]; [34],567 ng/mL
same,MRT,[1]; [34],28.8 min
same,Tmax,[1]; [34],4.8 min
same,Vd,[1]; [34],4.44 L/kg
same,clearance,[1]; [34],153 mL/min/kg
same,half-life,"[1]; ICR, mouse, plasma, iv, 3 mg/kg, 3 mg/kg i.v., single dose",31.8 min
same,bioavailability,"[1]; ICR, mouse, plasma, oral, 10 mg/kg",8.7%
same,AUC,[1]; [35],94.4 ng·h/mL
same,Cmax,[1]; [35],78.8 ng/mL
same,MRT,[1]; [35],52.2 min
same,Tmax,[1]; [35],10.2 min
same,half-life,"[1]; ICR, mouse, plasma, po, 10 mg/kg, 10 mg/kg p.o., single dose",66 min
same,"effect on ERK1/2 phosphorylation mediated by hD2R, compound alone (agonist mode)",[2],weak partial agonism
same,Ki,[3],5200 nM
same,Ki,[4],> 10000 nM
same,Ki,[5],579 nM
same,inhibition of apomorphine-induced climbing,[6],dose-dependently inhibit
same,effect on spontaneous locomotion,[7],no influences
same,Ki,[8],> 10000 nM
same,"effect on ERK1/2 phosphorylation mediated by hD3R, compound alone (agonist mode)",[9],no influence
same,competitive antagonism of ERK1/2 phosphorylation mediated by D3R,[9],dose-dependently inhibit
same,acute toxicity / tolerance,[10],dose-dependent lethal toxicity from 240 to 600 mg/kg
same,inhibition of MK-801-induced hyperactivity at 3 mg/kg,[11],did not show the inhibition activity
same,Ki,[12],8350 nM
same,Brain/plasma ratio at 2.0 h,"[13]; 3 mg/kg i.v., 3 mg/kg",1.60
same,Brain concentration at 0.5 h,[13]; 10 mg/kg p.o.,too low to test
same,concentration at 0.5 h,"[13]; ICR, mouse, brain, iv, 3 mg/kg, Brain concentration at 0.5 h, 3 mg/kg i.v.",98 ng/mL
same,concentration at 2 h,"[13]; ICR, mouse, brain, iv, 3 mg/kg, Brain concentration at 2.0 h, 3 mg/kg i.v.",11.5 ng/mL
same,Kp at 0.5 h,"[13]; ICR, mouse, brain, iv, 3 mg/kg, Brain/plasma ratio at 0.5 h, 3 mg/kg i.v.",0.55
same,concentration at 0.5 h,"[13]; ICR, mouse, plasma, iv, 3 mg/kg, Plasma concentration at 0.5 h, 3 mg/kg i.v.",180 ng/mL
same,concentration at 2 h,"[13]; ICR, mouse, plasma, iv, 3 mg/kg, Plasma concentration at 2.0 h, 3 mg/kg i.v.",7.17 ng/mL
same,concentration at 0.5 h,"[13]; ICR, mouse, plasma, po, 10 mg/kg, Plasma concentration at 0.5 h, 10 mg/kg p.o.",53.4 ng/mL
same,concentration at 2 h,"[13]; ICR, mouse, plasma, po, 10 mg/kg, Plasma concentration at 2.0 h, 10 mg/kg p.o.",2.89 ng/mL
same,Ki,[14],> 10000 nM
same,Ki,[15],5410 nM
same,Ki,[16],> 10000 nM
same,inhibition at 10 µM,[16],12.4 ± 5.8%
same,Ki,[17],> 10000 nM
same,cytotoxicity in PC12 cells,[18],significant cytotoxicity at high concentrations
same,Ki,[19],172 nM
same,serum prolactin level,[20],nonsignificant serum prolactin change
same,Ki,[21],214 nM
same,Catalepsy MED i.p. (minimum effective dose),[22],≥240.0 mg/kg
same,Catalepsy peak effect (percent of cataleptic animals),[22],0.0%
same,catalepsy under all tested doses,[22],did not elicit catalepsy
same,improvement of D3R binding affinity versus the phenyl group (23g),[23],approximately 10 fold
same,Ki,"[23]; Ki hD3, Table 6 selectivity profile",16.8 nM
same,Ki,[23]; [36],13.9 ± 3.4 nM
same,inhibition at 10 µM,[23],107.3 ± 0.3%
same,Ki,[24],2230 nM
same,Ki,[25],6100 nM
same,body weight / weight gain,[26],No influence on body weight
same,IC50,[27]; [37],2460 nM
same,Ki,[28],8720 nM
Cn1c2c(c3ccccc31)CN(CCCCNC(=O)c1cc3ccccc3[nH]1)CC2 [36a],"effect on ERK1/2 phosphorylation mediated by hD2R, compound alone (agonist mode)",[2],weak partial agonism
same,effect on spontaneous locomotion,[7],no influences
same,"effect on ERK1/2 phosphorylation mediated by hD3R, compound alone (agonist mode)",[9],no influence
same,competitive antagonism of ERK1/2 phosphorylation mediated by D3R,[9],dose-dependently inhibit
same,inhibition of MK-801-induced hyperactivity at 3 mg/kg,[11],did not show the inhibition activity
same,Ki,[16],> 10000 nM
same,inhibition at 10 µM,[16],20.9 ± 3.8%
same,cytotoxicity in PC12 cells,[18],significant cytotoxicity at high concentrations
same,Catalepsy MED i.p. (minimum effective dose),[22],≥480.0 mg/kg
same,Catalepsy peak effect (percent of cataleptic animals),[22],0.0%
same,catalepsy under all tested doses,[22],did not elicit catalepsy
same,Ki,[23]; [36],10.6 ± 4.5 nM
same,inhibition at 10 µM,[23],97.6 ± 2%
same,IC50,[27]; [37],1320 nM
Cn1c2c(c3ccccc31)CN(CCCCNC(=O)c1ccc(-c3ccccc3)cc1)CC2 [36f],"effect on ERK1/2 phosphorylation mediated by hD2R, compound alone (agonist mode)",[2],no functional affects
same,effect on spontaneous locomotion,[7],no influences
same,"effect on ERK1/2 phosphorylation mediated by hD3R, compound alone (agonist mode)",[9],no influence
same,competitive antagonism of ERK1/2 phosphorylation mediated by D3R,[9],dose-dependently inhibit
same,effect on the viability of BV2,[29],less effects
same,acute toxicity / tolerance,[10],well tolerant
same,inhibition of MK-801-induced hyperactivity at 3 mg/kg,[11],reduced the distance of mice movement
same,Ki,[16],> 10000 nM
same,inhibition at 10 µM,[16],-20.7 ± 4.9%
same,effect on the viability of HEK293T,[30],less effects
same,Catalepsy MED i.p. (minimum effective dose),[22],≥480.0 mg/kg
same,Catalepsy peak effect (percent of cataleptic animals),[22],0.0%
same,catalepsy under all tested doses,[22],did not elicit catalepsy
same,Ki,[23]; [36],4.1 ± 0.3 nM
same,inhibition at 10 µM,[23],104 ± 1.4%
same,IC50,"[27]; hERG IC50, patch clamp",> 40000 nM
same,IC50,[27]; [37],46900 nM
"CN(C)C(=O)N[C@H]1CC[C@H](CCN2CCN(c3cccc(Cl)c3Cl)CC2)CC1 [Cariprazine, cariprazine, reference compound]","effect on ERK1/2 phosphorylation mediated by hD2R, compound alone (agonist mode)",[2],did not exhibit significant effects
same,inhibition of apomorphine-induced climbing,[6],dose-dependent inhibition
same,inhibition of MK-801-induced hyperactivity,"[11]; i.p., MK-801 0.3 mg/kg s.c., 60 min",dose-dependently inhibited
"CNCC[C@H](Oc1cccc2ccccc12)c1cccs1 [DLX, duloxetine, reference compound]",FST latency,[31],failed to prolong
same,immobility time of FST,[31],robust decrease
same,immobility time in the TST,[32],robust decrease
"CCCN1CCO[C@@H]2c3cc(O)ccc3OC[C@H]21 [PD128907, reference compound]","effect on ERK1/2 phosphorylation mediated by hD2R, compound alone (agonist mode)",[2],but not CHO-hD2R cells
same,"effect on ERK1/2 phosphorylation mediated by hD3R, compound alone (agonist mode)",[9],full ERK1/2 phosphorylation
same,Ki,[33],1 nM
